Assay results taken from publication PMC3064226 (The Journal of Biological Chemistry, 2011).

Target: T1, PfnPrx (His6-nPrx1-164) (Plasmodium falciparum, UniProt Q8IJD0)
T1 sequence (Q8IJD0 1-164): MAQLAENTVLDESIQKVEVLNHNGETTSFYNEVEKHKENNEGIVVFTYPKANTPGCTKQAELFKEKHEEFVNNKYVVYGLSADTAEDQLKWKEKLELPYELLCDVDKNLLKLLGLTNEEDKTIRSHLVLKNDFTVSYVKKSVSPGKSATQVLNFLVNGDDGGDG
Test: NADPH oxidation at […] nm, coupled to glutathione reductase/GSH/PfGrx1
Type: biochemical
Conditions: read-out: apparent Km; 10 μM PfGrx1, 1 mM GSH, 200 μM NADPH, 100 mM HEPES pH 7.6, 1 mM EDTA, 25 °C

Compound: CC(C)(OO)c1ccccc1 [cumene hydroperoxide]
- Km: ~30 µM
